Values joined by “and” are separate entries in the source; they are usually repeats but may differ in a detail not shown here. Equal values may be shown once.
What was measured:
[1] = target: T1, horseradish peroxidase (HRP) (Armoracia rusticana, UniProt P00433); test: HRP-mediated oligomerization of 1Gd^3+ and 2Gd^3+: relaxivity, MALDI-MS; type: biochemical; parameters: purchased Sigma; conditions: for increase in relaxivity in the presence of peroxidase: 96-well plate image, 4 units HRP, DPBS; for increase in [r1p]: 0.47T and 40° C.
T1 sequence (P00433 31-338): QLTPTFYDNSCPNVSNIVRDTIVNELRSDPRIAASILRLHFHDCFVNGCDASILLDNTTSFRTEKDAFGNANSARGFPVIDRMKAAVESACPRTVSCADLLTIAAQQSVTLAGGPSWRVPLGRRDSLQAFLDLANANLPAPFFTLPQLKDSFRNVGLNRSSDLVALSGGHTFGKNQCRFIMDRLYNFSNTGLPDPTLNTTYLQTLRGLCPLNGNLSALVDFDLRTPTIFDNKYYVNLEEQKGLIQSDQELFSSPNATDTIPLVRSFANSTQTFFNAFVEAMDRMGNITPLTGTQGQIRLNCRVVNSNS
Protocol: (§1) Relaxation times at 0.47 T was obtained on a Bruker NMS-120 Minispec spectrometer using an inversion recovery sequence, with a TR=5T1, and 15 TI points evenly spaced up to 5T1.
(§2) Relaxation times at 1.5 T was measured on a 1.5 T GE Excite MR scanner utilizing an inversion recovery sequences with TR=2000 ms, TI=50, 75, 100, 150, 200, 250, 300, 350, 400, 500, 625, 750, 1000 ms. A fixed-size region of interest was drawn to obtain the signal intensity of the samples.
(§3) The data at 0.47 T and 1.5 T were fitted to the equation Ix=I0*(1−2e^[…]) to obtain T1, where I is the signal obtained at a certain time point TI, with I0 (total signal or magnetization) and T1 being fitted values.
Horseradish peroxidase was purchased from Sigma as a lyophilized powder that was dissolved in PBS buffer (4 mg/mL) and its activity was measured using substantially the same the methods described by Klebanoff, S. J.; Waltersdorph, A. M.; Rosen, H. Meth Enzymol. 1984 Vol. 105, p 399-403.
Oligomerization of compounds 1Gd^3+ and 2Gd^3+ was achieved by incubating the desired solution (0.5 mL) of monomer with an excess of H2O2 3% (2 μL) and HRP (1 μg≈4 Units) for 1 hour at 40° C. Both T1 and T2 were measured at two different field strengths: 0.47T and 1.5T, this last one using a clinical magnet (1.5 T Signa, GE).
(§4) The relaxivities of various polymerized products were measured using a minimum of four different gadolinium complex concentrations ranging from 2.5 mM to 0.01 mM. Horseradish peroxidase (HRP) was used in the proof-of-the-principle experiments. As used herein, the descriptors 1Gd^3+ and 2Gd^3+ refer to Gd^3+-chelated compounds 1 and 2, respectively. The synthesis of 1Gd^3+ and 2Gd^3+ are described in the Examples.

[2] = Relaxivity of monomeric Gd complexes without enzyme; type: physicochemical; conditions: for r1p (0.47T, 40°) / r1p (1.5T, 25°): no HRP
Protocol: Stock solutions of compounds 1Gd and 2Gd were prepared by dissolving the corresponding complexes in DPBS buffer solution (pH 7.4) and were kept at −4° in the dark. Every stock solution was titrated by means of ICP-MS (Elemental Research Inc.).
as §1, §2, §3, §4

HRP = target: T2, HRP (Armoracia rusticana, UniProt P00433); test: HRP effect over T1, well plate with different HRP amounts; type: biochemical, horseradish; conditions: for lowest enzyme activity level with detectable decrease in T1 / decrease in T1: 0.5 mM; for T1: C = 0.5 mM
T2 construct: purchased Sigma
T2 sequence (P00433 31-338): T1 sequence (P00433 31-338)
Protocol: MR imaging was performed on a 1.5 T GE Excite whole body MR scanner using a 3 inch surface coil. T1-weighted images were obtained using a spin echo sequence with TR=500 ms, TE=11 ms, NEX=4.
To estimate the detection limit of these sensor substrates, a new well plate layout containing a fixed concentration of 1Gd^3+ (0.5 mM, row b1) and 2Gd^3+ (0.5 mM, row b2) supplemented with different HRP amounts (from left to right: 4, 0.4, 0.04, 0.004 U) was imaged (FIG. 10B). The use of 4 U/mL of enzyme yielded a decrease in T1 by 50 and 25% for compounds 1Gd^3+ and 2Gd^3+, respectively. Detectable decrease could be seen at enzyme specific activity levels as low as 0.04 U/mL. In this case the decrease was measured to be 15% for compound 1Gd^3+ and 12% for compound 2Gd^3+.

[3] = target: T3, human myeloperoxidase (MPO) (Homo sapiens, UniProt P05164); conditions: in vitro settings; reference (9); cited from earlier work
T3 construct: purchased BioDesign Inc

MPO = target: T4, MPO (Homo sapiens, UniProt P05164); test: MR imaging at 1.5 T of substrate solutions with MPO; type: biochemical
T4 construct: purchased BioDesign Inc
Protocol: Standard 96-well plates were prepared and imaged on a 1.5 T whole body clinical General Electric Signa MRI scanner utilizing a standard 3 inch surface coil. Inversion recovery sequences were used to measure T1 relaxation and spin echo sequences were utilized to measure T2 relaxation. T2 weighted images were obtained with TR=5000 ms and TE=100 ms with a fast spin echo sequence. T1 weighted images were obtained with spin echo sequences with the following parameters: TR=100, 200, 350, or 500, TE=11. For the Matrigel™ experiments, a relatively T2 weighted image was obtained at TR=300 ms and TE=200 ms. Single-exponential models were used to obtain T1 and T2. The relaxivities were computed by normalizing relaxation rates to the concentration of gadolinium in each sample, obtained by inductive coupled plasma (ICP) analysis performed by Galbraith Laboratories.
Because of the relatively higher relaxivity and relatively faster kinetics with MPO, 5-HT-DOTA was chosen for further evaluation by imaging on a clinical 1.5 T MRI scanner. FIGS. 6A-6F and FIGS. 7A-7F illustrate the relative signal changes for typical T1- and T2-weighted images in aqueous solutions with MPO. […] An approximately 40% signal difference was identified at 1300-2000 U (FIGS. 6C-6D), in keeping with the amount of relaxivity shortening found in the relaxation experiments ˜70%).

plasma proteins = test: Substrate binding to plasma components (Biospin P-6 elution with 111In tracer); type: in vitro ADME; conditions: human plasma; eluting experiments
Protocol: The follow experiments were performed to determine the effect of MPO-activated substrate oligomerization with plasma proteins to form larger aggregate. Human plasma was extracted from healthy donors by the use of Polymorphprep (Accurate Chemicals) and centrifugation according to the manufacturer's instructions. Aliquots of 3 mM solution of bis-5-HT-DTPA(Gd) was mixed with aliquots of ^111In-bis-5-HT-DTPA as a tracer, with or without human plasma and with and without MPO/H2O2. […] Radioactivity retained in the columns and the eluted material were counted separately in 1480 Wizard gamma counter (Perkin-Elmer) and the fraction of radioactivity bound to proteins was calculated (n=3 independent experiments).

T4 sequence (P05164 279-745 limits assumed): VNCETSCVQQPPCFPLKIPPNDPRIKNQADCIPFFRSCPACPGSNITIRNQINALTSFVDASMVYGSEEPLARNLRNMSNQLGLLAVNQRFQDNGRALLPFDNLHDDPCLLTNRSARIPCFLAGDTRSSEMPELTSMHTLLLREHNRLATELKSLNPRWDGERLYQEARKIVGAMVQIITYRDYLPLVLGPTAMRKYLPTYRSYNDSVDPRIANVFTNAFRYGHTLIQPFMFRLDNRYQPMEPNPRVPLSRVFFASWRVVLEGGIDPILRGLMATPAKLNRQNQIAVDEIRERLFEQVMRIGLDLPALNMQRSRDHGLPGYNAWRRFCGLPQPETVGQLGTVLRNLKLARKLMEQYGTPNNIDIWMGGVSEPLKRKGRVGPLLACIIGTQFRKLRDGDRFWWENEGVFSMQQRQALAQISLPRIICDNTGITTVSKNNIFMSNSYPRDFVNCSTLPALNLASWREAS
T4 sequence (P05164 165-273 limits assumed): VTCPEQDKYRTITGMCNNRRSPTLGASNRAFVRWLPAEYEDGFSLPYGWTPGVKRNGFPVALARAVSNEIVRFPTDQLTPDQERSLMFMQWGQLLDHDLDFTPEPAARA
T3 sequence (P05164 279-745 limits assumed): as the sequence (P05164 279-745 limits assumed) above
T3 sequence (P05164 165-273 limits assumed): as the sequence (P05164 165-273 limits assumed) above

Row | SMILES | increase in relaxivity in the presence of peroxidase [1] [%] | increase in [r1p] ([1]; HRP) [fold] | r1p (0.47T, 40°) ([2]; H2O pH = 4.8) [mM⁻¹ s⁻¹] | r1p (0.47T, 40°) ([2]; PBS pH = 7.4) [mM⁻¹ s⁻¹] | r1p (1.5T, 25°) ([2]; PBS pH = 7.4) [mM⁻¹ s⁻¹] | lowest enzyme activity level with detectable decrease in T1 (HRP) [U/mL] | decrease in T1 (HRP; 0.04 U/mL of enzyme) [%] | decrease in T1 (HRP; 4 U/mL of enzyme) [%] | T1 (HRP; HRP 0 U) [ms] | T1 (HRP; HRP 4 10-1 U) [ms] | T1 (HRP; HRP 4 10-2 U) [ms] | T1 (HRP; HRP 4 10-3 U) [ms] | T1 (HRP; HRP 4 U) [ms] | time of MPO activation and oligomerization to reach 90% completion [3] | other results
1 | O=C([O-])CN(CCN(CC(=O)[O-])CC(=O)NCCc1ccc(O)cc1)CCN(CC(=O)[O-])CC(=O)NCCc1ccc(O)cc1.[Gd+3] [1Gd^3+] | 70 | 3.7 | 4.6 | ~4.3 | 5.3 | 0.04 | 15 | 50 | 316 | 229 | 274 | 321 | 211 | – | increase in relaxivity ([1]; HRP, 1.5T clinical MRI unit at 25°): 1.7 fold
2 | CC(C(=O)NCC(=O)NCCc1c[nH]c2ccc(O)cc12)N1CCN(CC(=O)[O-])CCN(CC(=O)[O-])CCN(CC(=O)[O-])CC1.[Gd+3] (stereo not drawn) [5-HT-DOTA(Gd), Glycylmethyl DOTA(Gd) 5-Hydroxytryptamide] | – | – | – | – | – | – | – | – | – | – | – | – | – | about 15 minutes | MPO activity giving visible imaging signal changes (MPO): 250 U and 250-650 U; signal difference between MPO-converted product and substrate solution (MPO; 1300-2000 U): approximately 40%
3 | O=C([O-])CN(CCN(CC(=O)[O-])CC(=O)NCCc1c[nH]c2ccc(O)cc12)CCN(CC(=O)[O-])CC(=O)NCCc1c[nH]c2ccc(O)cc12.[Gd+3] [2Gd^3+] | 30 | 2.4 | 4.5 | ~4.3 | 5.1 | 0.04 | 12 | 25 | 339 | 278 | 303 | 331 | 271 | about 15 minutes | binding of MPO-activated oligomers to plasma proteins compared to the substrate itself (plasma proteins): over 3 fold; increase in relaxivity ([1]; HRP, 1.5T, 25°, concentrations below 0.5 mM used for fitting): 1.4 fold; minimum increase in relaxivity ([1]; HRP, 1.5T, 25°, predicted from the obtained data): ≥ 30%; minimum relaxivity increase ([1]; pH=7.4 (PBS buffer), 0.47T, 'in an embodiment', enzyme not stated): ≥ 40%; r1 ([2]; well plate at 1.5T, pH 7.2, no enzyme (row 1)): 4.7 mM⁻¹ s⁻¹

Reference: patent US8153784B2, “Imaging of enzyme activity” (The General Hospital Corporation, priority 2004, dated 2012)
